A short description of data set [1]: Pharmacokinetics after intranasal administration in rabbits. It is filed as in vivo, New Zealand white rabbits. Here is the method:
The pharmacokinetic profiles for Example 1A, 1B and 1C as well as an olapatdine nasal formulation were each determined on 6 male New Zealand white rabbits. The olopatadine nasal formulation (0.6% w/v) was prepared from Olopat Max® 0.7% w/v, where Olopat Max® was diluted to 0.6% w/v by using purified water.
(§1) The study was carried out on total 24 male New Zealand white rabbits, which were segregated into four groups (G1 to G4, 6 rabbits/group). Mild anaesthesia was induced in all rabbits by inhalation of 2% isoflurane. Three groups (G1-G3) of anaesthetized rabbits were intranasally administered 250 μL of alcaftadine once daily using the formulations of Examples 1A, 1B, and 1C. A comparator, 250 μL of olopatadine at a concentration of 0.6% w/v, was intranasally administered once-daily to a fourth group G4 of anaesthetized rabbits.
Sampling details for the test and reference formulations: Approximately 0.5 mL of blood sample from each rabbit was withdrawn via marginal car vein into pre-labelled Eppendorf tubes containing 10% EDTA as an anticoagulant. Blood samples were withdrawn at 0 min, 5 min, 10 min, 15 min, 30 min, 60 min, 120 min, 240 min, 480 min and 1440 min after administration of test and reference formulations.
(§2) Procedure for sample preparation: Collected blood samples were mixed gently and kept on crushed ice. Plasma samples were separated after centrifugation at 3500 rpm for 10 min at 4° C. Plasma separation was carried out within 30 min of sample collection and stored at −70±10° C. The animals were euthanized by intravenous administration of sodium thiopental injection overdose and nasal epithelium was collected. Half of the tissues of nasal epithelium were homogenized using phosphate buffered solution (20% homogenation) for quantification of alcaftadine and olopatidine. The remaining half of the tissues were stored in 10% neutral buffered formalin for detailed gross histopathological examination such as necrosis, inflammation or any changes during necropsy.
Rabbit plasma and nasal epithelial tissue concentrations of alcaftadine or olopatidine were determined using a fit-for-purpose LC-MS/MS method with LLOQ of 0.500 ng/ml or 0.250 ng/mL, respectively. The pharmacokinetic parameters were evaluated using Phoenix WinNonlin® Ent-Version 8.0 by non-compartmental analysis.

Data set [2] can be described thus: Nasal irritation and histopathology of nasal epithelium after intranasal administration in rabbits. To be noted: doses 0.312 mg, 0.625 mg and 1.25 mg, all three groups. It is filed as in vivo, New Zealand white rabbits. As for the experimental part:
as §1, §2

The mark [3] stands for this setting: single intranasal administration, doses 0.625 to 1.25 mg, rabbits.

Consider two molecules from patent US12274702B2, “Nasal compositions comprising alcaftadine” (ALKEM LABORATORIES LIMITED, priority 2021, dated 2025).

Consider `CN1CCC(=C2c3ccccc3CCn3c(C=O)cnc32)CC1` [Alcaftadine, 6,11-dihydro-11-(1-methyl-4-piperidinylidene)-5H-imidazo[2,1-b][3]benzazepine-3-carboxaldehyde], for which the “plasma concentration / systemic exposure” value in data set [1] (intranasal, rabbits) was “dose proportional with overall low systemic exposure”. Moreover, the “onset of action versus intranasal olopatadine (from Tmax)” value in data set [1] (intranasal, rabbits, olopatadine 1.5 mg) is listed as “faster onset of action than intranasal olopatadine”. Further, in data set [1] (setting [3]), the “area under the curve (AUC0-24h)” value was “dose proportional” and the “peak plasma concentrations (Cmax)” value is given as “dose proportional”. Also, the “time to achieve maximum concentration (Tmax)” value in data set [1] (single intranasal instillation, dose 0.625 mg (250 μL of Example 1B), rabbit plasma) came to 4.8 min. Besides, in data set [2], the “signs or symptoms of inflammation or irritation” value is “no signs or symptoms of inflammation or irritation were observed”.

As for `CN(C)CC/C=C1/c2ccccc2COc2ccc(CC(=O)O)cc21` [olopatadine], the Tmax in data set [1] (male, New Zealand white, inhaled or intranasal, single intranasal administration of 1.5 mg (250 μL, 0.6% w/v), rabbit plasma, read-out: time to reach peak concentration (Tmax)) came out at 22.8 min.
